# Residue numbers refer to the chain shown, from its start. Like-named read-outs stand apart in the source and are kept apart here.
# Experiments:
# [1] = target: T1, MGL (Rattus norvegicus, UniProt Q8R431); experiment: 2-AG accumulation assay in rat brain homogenate; type: biochemical; settings: rat brain homogenate, 2-AG accumulation as percent of vehicle; for 2-AG accumulation, % of vehicle control at 10 µM: compound 10 μM, read-out: Rat Brain 2AG % VehCntrl (%) @ 10 μM; for 2-AG accumulation, % of vehicle control at 1 µM: compound 1 μM, read-out: Rat Brain 2AG % VehCntrl (%) @ 1 μM
# T1 construct: one g rat brain was homogenized using a Polytron homogenizer; from tissue; host or cells: rat brain homogenate
# T1 sequence (Q8R431 1-303): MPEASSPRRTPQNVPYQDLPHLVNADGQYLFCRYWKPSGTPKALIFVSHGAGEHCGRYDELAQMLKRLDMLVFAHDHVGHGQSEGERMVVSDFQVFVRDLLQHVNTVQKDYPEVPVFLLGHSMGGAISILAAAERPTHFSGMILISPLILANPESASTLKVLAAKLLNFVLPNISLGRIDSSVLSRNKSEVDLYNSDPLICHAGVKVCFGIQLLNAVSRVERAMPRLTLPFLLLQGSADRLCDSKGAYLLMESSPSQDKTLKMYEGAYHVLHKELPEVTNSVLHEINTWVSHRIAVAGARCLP
# [2] = target: T2, purified wild type MGL (wt-MGLL 6H-11-313) (Homo sapiens, UniProt Q99685)
# T2 sequence (Q99685 1-303): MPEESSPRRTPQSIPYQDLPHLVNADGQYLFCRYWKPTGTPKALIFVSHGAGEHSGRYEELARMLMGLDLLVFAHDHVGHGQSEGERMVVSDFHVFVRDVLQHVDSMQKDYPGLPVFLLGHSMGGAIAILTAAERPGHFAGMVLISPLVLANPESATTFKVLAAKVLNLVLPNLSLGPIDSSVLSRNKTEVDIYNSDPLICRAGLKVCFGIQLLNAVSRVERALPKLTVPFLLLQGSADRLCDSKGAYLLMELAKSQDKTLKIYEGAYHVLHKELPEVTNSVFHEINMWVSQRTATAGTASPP
# [3] = target: T3, mutant MGL (Homo sapiens, UniProt Q99685, L169S/L176S); experiment: MGL ThermoFluor assay - mutant; type: binding
# T3 sequence (Q99685 1-303 L169S/L176S): T2 sequence (Q99685 1-303) with L169S, L176S
# [4] = ThermoFluor thermal stability binding assay, read-out: MGL mutant ThermoFluor Kd
# [5] = ThermoFluor concentration-response, read-out: MGL mutant ThermoFluor Kd
# [6] = ThermoFluor, compound concentration measured by qNMR, read-out: MGL mutant ThermoFluor qKd (μM) (using qNMR conc.)
Structure (SMILES),"2-AG accumulation, % of vehicle control at 1 µM [1]","Kd [3, 4]","Kd [3, 5]",further results
"O=C(c1nccs1)N1CC(N2CCN(C(=O)c3ccc(-c4ccccc4)cc3)C(c3ccccc3)C2)C1 (stereo not shown) [Cpd 43, 1-(Biphenyl-4-ylcarbonyl)-2-phenyl-4-[1-(1,3-thiazol-2-ylcarbonyl)azetidin-3-yl]piperazine]",–,–,–,"2-AG accumulation, % of vehicle control at 10 µM [1]: 215%; IC50 [2]: 1260 nM"
"O=C(c1ccccc1)N1CCN(C2CN(C(=O)c3ccc(-c4ccccc4C(F)(F)F)cc3)C2)CC1 [Cpd 72, 1-(Phenylcarbonyl)-4-(1-{[2′-(trifluoromethyl)biphenyl-4-yl]carbonyl}azetidin-3-yl)piperazine]",–,–,–,"2-AG accumulation, % of vehicle control at 10 µM [1]: 334%; IC50 [2]: 326 nM"
"Cc1nc(-c2ccccc2)sc1C(=O)N1CC(N2CCN(C(=O)c3nccs3)CC2)C1 [Cpd 133, 1-{1-[(4-Methyl-2-phenyl-1,3-thiazol-5-yl)-carbonyl]azetidin-3-3yl}-4-(1,3-thiazol-2-ylcarbonyl)piperazine]",–,–,–,"2-AG accumulation, % of vehicle control at 10 µM [1]: 623%; IC50 [2]: 67.3 nM"
O=C(c1ccccc1)N1CCN(C2CN(C(=O)c3sc4cc(F)ccc4c3Cl)C2)CC1 [Cpd 543],158%,0.038 µM,–,–
O=C(c1ccccc1)N1CCN(C2CN(C(=O)c3ccc(COc4cccc(Cl)c4)cc3)C2)CC1 [Cpd 548],280%,–,0.062 µM,–
O=C(c1ccccc1)N1CCN(C2CN(C(=O)c3ccc(-c4ccccc4)cc3Cl)C2)CC1 [Cpd 612],106%,–,0.078 µM,–
Cc1cc(C(=O)N2CC(N3CCN(C(=O)c4ccccc4)CC3)C2)ccc1-c1ccccc1 [Cpd 613],165%,–,0.051 µM,–
O=C(c1ccccc1)N1CCN(C2CN(C(=O)c3ccc(-c4ccccc4)cc3F)C2)CC1 [Cpd 614],87%,–,0.066 µM,–
COc1cc(C(=O)N2CC(N3CCN(C(=O)c4ccccc4)CC3)C2)ccc1-c1ccccc1 [Cpd 615],123%,–,0.097 µM,–
O=C(/C=C/c1ccc(SC(F)(F)F)cc1)N1CC(N2CCN(C(=O)c3cscn3)CC2)C1 [Cpd 648],126%,–,0.146 µM,–
CC(C)(C)OC(=O)N1CCC(c2ccc(C(=O)N3CC(N4CCN(C(=O)c5cscn5)CC4)C3)cc2)CC1 [Cpd 903],908%,0.078 µM,–,–
COc1cncc(Oc2ccc(C(=O)N3CC(N4CCN(C(=O)c5nccs5)CC4)C3)cc2)c1 [Cpd 904],392%,–,0.633 µM,–
"O=C(c1cscn1)N1CC(N2CCN(C(=O)c3cc4cc(C(F)(F)F)ccc4s3)C(c3ccccc3)C2)C1 (stereo not shown) [Cpd 905, 2-Phenyl-4-[1-(1,3-thiazol-4-ylcarbonyl)azetidin-3-yl]-1-{[5-(trifluoromethyl)-1-benzothiophen-2-yl]carbonyl}piperazine]",119%,–,0.044 µM,–
O=C(c1cscn1)N1CCN(C2CN(C(=O)c3cc4cc(C(F)(F)F)ccc4s3)C2)CC1 [Cpd 908],217%,0.093 µM,–,–
O=C(c1ccc(Oc2ccccn2)c(F)c1)N1CC(N2CCN(C(=O)c3nccs3)CC2)C1 [Cpd 909],144%,–,0.325 µM,–
O=C(c1cscn1)N1CCN(C2CN(C(=O)c3sc4cc(F)ccc4c3Cl)C2)CC1 [Cpd 929],301%,0.02 µM,–,–
O=C(c1nccs1)N1CCN(C2CN(C(=O)c3sc4cc(F)ccc4c3Cl)C2)CC1 [Cpd 930],807%,0.005 µM,–,–
O=C(c1ccc(CSc2cccc(Cl)c2)cc1)N1CC(N2CCN(C(=O)c3cscn3)CC2)C1 [Cpd 956],514%,–,0.081 µM,–

Structure (SMILES),"2-AG accumulation, % of vehicle control at 1 µM [1]","Kd [3, 4]","Kd [3, 5]",further results
O=C(c1ccc(OCc2cccc(Cl)c2)cc1)N1CC(N2CCN(C(=O)c3cscn3)CC2)C1 [Cpd 960],896%,0.036 µM,–,–
Cc1nc(COc2ccc(Cl)cc2)sc1C(=O)N1CC(N2CCN(C(=O)c3nccs3)CC2)C1 [Cpd 965],591%,–,0.035 µM,–
O=C(c1ccc(CNc2cccc(Cl)c2)cc1)N1CC(N2CCN(C(=O)c3cscn3)CC2)C1 [Cpd 969],515%,–,0.069 µM,–
O=C(c1ccc(OCc2cccc(Br)n2)cc1)N1CC(N2CCN(C(=O)c3nccs3)CC2)C1 [Cpd 983],194%,0.019 µM,–,–
"O=C(c1ccc(C(F)(F)c2ccccc2)cc1)N1CC(N2CCN(C(=O)c3nccs3)CC2)C1 [Cpd 986, 1-[1-({4-[Difluoro(phenyl)methyl]phenyl}carbonyl)azetidin-3-yl]-4-(1,3-thiazol-2-ylcarbonyl)piperazine]",626%,–,0.005 µM,–
O=C(c1ccc(OCc2cccc(Br)n2)cc1)N1CC(N2CCN(C(=O)c3cscn3)CC2)C1 [Cpd 987],320%,0.327 µM,–,–
O=C(c1ccc2c(cnn2-c2cccc(F)c2)c1)N1CC(N2CCN(C(=O)c3nccs3)CC2)C1 [Cpd 1110],807%,–,–,"Kd [3, 6]: 0.01 µM"
N#Cc1cccc(-n2ccc3cc(C(=O)N4CC(N5CCN(C(=O)c6nccs6)CC5)C4)ccc32)c1 [Cpd 1113],819%,–,–,"Kd [3, 6]: 0.01 µM"
O=C(c1ccc2nc(-c3cccc(F)c3)sc2c1)N1CC(N2CCN(C(=O)c3nccs3)CC2)C1 [Cpd 1131],563%,0.016 µM,–,–
"O=C(c1ccc2c(ccn2-c2ncc(F)cn2)c1)N1CC(N2CCN(C(=O)c3nccs3)CC2)C1 [Cpd 1147, 1-(5-Fluoropyrimidin-2-yl)-5-({3-[4-(1,3-thiazol-2-ylcarbonyl)piperazin-1-yl]azetidin-1-yl}carbonyl)-1H-indole]",892%,–,0.003 µM,–
Cc1oc(-c2ccccc2)cc1C(=O)N1CC(N2CCN(C(=O)c3nccs3)CC2)C1 [Cpd 1378],493%,0.025 µM,–,–
O=C(c1nccs1)N1CCN(C2CN(C(=O)c3cc(-c4ccccc4)oc3C(F)(F)F)C2)CC1 [Cpd 1379],282%,0.042 µM,–,–
Cc1nc(-c2cccc(Cl)c2)sc1C(=O)N1CC(N2CCN(C(=O)c3cscn3)CC2)C1 [Cpd 1381],604%,0.083 µM,–,–
"O=C(c1ccc2oc(-c3ccccc3)nc2c1)N1CC(N2CCN(C(=O)c3cscn3)CC2)C1 [Cpd 1382, 2-Phenyl-5-({3-[4-(1,3-thiazol-4-ylcarbonyl)piperazin-1-yl]azetidin-1-yl}carbonyl)-1,3-benzoxazole]",–,–,0.197 µM,"2-AG accumulation, % of vehicle control at 10 µM [1]: 293%"
Cc1nc(-c2ccc(Cl)cc2)sc1C(=O)N1CC(N2CCN(C(=O)c3cscn3)CC2)C1 [Cpd 1384],313%,0.061 µM,–,–
"O=C(c1nccs1)N1CCN(C2CN(C(=O)c3ccc(-c4ccccc4)cc3F)C2)CC1 [Cpd 1405, 1-{1-[(3-Fluorobiphenyl-4-yl)carbonyl]azetidin-3-yl}-4-(1,3-thiazol-2-ylcarbonyl)piperazine]",197%,–,0.002 µM,–
Cc1cc(C(=O)N2CC(N3CCN(C(=O)c4cscn4)CC3)C2)ccc1-c1ccccc1 [Cpd 1406],169%,–,0.029 µM,–

# From patent US8362000B2, “Azetidinyl diamides as monoacylglycerol lipase inhibitors” (Janssen Pharmaceutica NV, priority 2009, dated 2013)
